Laboratory results: publication PMC7581941, “Schedule-Dependent Synergy Between the Histone Deacetylase Inhibitor Belinostat and the Dihydrofolate Reductase Inhibitor Pralatrexate in T-and B-cell Lymphoma Cells in vitro” (Frontiers in Cell and Developmental Biology, 2020)
Where two headings read alike, the source gives them in different places.

Key:
Karpas-299 = test: Cell growth inhibition (MTT) and median-drug effect analysis, Karpas-299; type: cell-based; settings: Homo sapiens, read-out: IC50 (50% growth inhibition); Karpas-299, 72 h exposure
Experimental: (§1) Cells were treated immediately with a drug dilution series in cell culture medium (75 μL/well). After an incubation period of approximately 72 h, growth in the 96-wells plates was assessed by adding 15 μL MTT solution (stock solution 5 mg/ml in PBS, final concentration 0.5 mg/ml in culture medium) to each well. After incubation for 3 h in the 5% CO2 incubator with 100% humidity at 37°C, 150 μL acidified 2-propanol was added to the plates to dissolve the formazan crystals. The yellow-colored MTT stock solution is taken up and reduced to a purple formazan in living cells, which directly correlates to the amount of viable cells. As final step, the plates were measured at 540 (or 492) nm by the SPECTRAfluor spectrophotometer.
(§2) Drug interaction in combination experiments was evaluated using the median-drug effect analysis using CalcuSyn software ([Bijnsdorp et al., 2011]). In order to evaluate combination indexes [CI] from different experiments, the CI values at Fraction Affected (FA) values >0.5 (preferably around 0.5, 0.75, and 0.9) were averaged for each specific experiment. The means of the separate experiments were subsequently averaged so that a mean ± Standard Error of the Mean (SEM) was calculated from three or more separate experiments. […]

CCRF-CEM = test: Cell growth inhibition (MTT), CCRF-CEM; type: cell-based, human; settings: Homo sapiens, read-out: IC50 (50% growth inhibition); CCRF-CEM, 72 h exposure
Experimental: as §1

lymphoma cell lines = test: Cell growth inhibition and median-drug effect analysis, panel of lymphoma cell lines; type: cell-based
Experimental: (§3) Cells were plated in 96-wells flat bottom plates, at 3,000 or 6,000 cells per well in culture medium (75 μL/well) or in 24-wells plates (60,000 cells/well) for the counting assays for which a Coulter Counter was used. Cells were treated immediately with a drug dilution series in cell culture medium (75 μL/well). […] After incubation for 3 h in the 5% CO2 incubator with 100% humidity at 37°C, 150 μL acidified 2-propanol was added to the plates to dissolve the formazan crystals. The yellow-colored MTT stock solution is taken up and reduced to a purple formazan in living cells, which directly correlates to the amount of viable cells. As final step, the plates were measured at 540 (or 492) nm by the SPECTRAfluor spectrophotometer. […] Drug interaction in combination experiments was evaluated using the median-drug effect analysis using CalcuSyn software ([Bijnsdorp et al., 2011]). […] The means of the separate experiments were subsequently averaged so that a mean ± Standard Error of the Mean (SEM) was calculated from three or more separate experiments. […] Drug combinations were designed based on the standard CalcuSyn approach in which a series of drug concentrations were combined in a fixed molar ratio, based on the IC50 of each drug. A variation of this approach was a sequential scheduling in which cells were exposed for 72 h to BLS, while in the combination PLX was added after 24 h and cells were exposed from 24 to 72 h.

HT cells [1] = test: FACS propidium iodide staining: cell cycle distribution and cell death, HT; type: cell-based
Experimental: (§4) Propidium iodide staining (DNA staining) was used to determine cell cycle distribution and the extent of cell death. Cells (120,000 per well in a 24-wells plate) were exposed to PLX or BLS or the combination for 24, 48, or 72 h. Cells were harvested, suspended in 1.0 ml phosphate buffered saline/1% Bovine serum albumin and fixed with 70% ethanol. After centrifugation the pellet was resuspended in hypotonic propidium iodide (0.1 mg/ml), Triton-X-100 (0.1%), sodium citrate (1 mg/ml) and RNAse A (0.5 mg/ml) (final concentrations in saline) and stored in dark on ice for 30 min ([De Wilt et al., 2012]). DNA content of the cells to determine cell cycle effects and cell kill was analyzed by a FACScalibur (Becton Dickinson Immunocytometry Systems, San Jose, CA, United States) with an acquisition of 10,000 events as described previously ([De Wilt et al., 2012]).

Hut-29 = test: Cell growth inhibition (MTT) and median-drug effect analysis, Hut-29; type: cell-based; settings: read-out: IC50 (50% growth inhibition); Hut-29, 72 h exposure
Experimental: as §1, §2

SUDHL-4 cells [2] = test: FACS propidium iodide staining: cell death, SUDHL-4; type: cell-based; settings: drugs at their IC50, untreated 5.0%
Experimental: as §4

SUDHL-4 cells [3] = test: Cell growth inhibition (cell counting) and median-drug effect analysis, SUDHL-4; type: cell-based; settings: Homo sapiens, SU-DHL-4, read-out: IC50 (50% growth inhibition); SUDHL 4, 72 h exposure
HT cells [4] = test: Cell growth inhibition (cell counting) and median-drug effect analysis, HT; type: cell-based; settings: for IC50: HT
Jeko-1 = test: Cell growth inhibition (MTT) and median-drug effect analysis, Jeko-1; type: cell-based; settings: Homo sapiens, read-out: IC50 (50% growth inhibition); Jeko-1, 72 h exposure
Experimental: as §3, with “A variation of this approach was a sequential scheduling in which cells were exposed for 72 h to BLS, while in the combination PLX was added after 24 h and cells were exposed from 24 to 72 h.” left out

SUDHL-5 cells = test: Cell growth inhibition (MTT) and median-drug effect analysis, SUDHL-5; type: cell-based; settings: Homo sapiens, SU-DHL-5, read-out: IC50 (50% growth inhibition); SUDHL 5, 72 h exposure
Experimental: as §1
Drug interaction in combination experiments was evaluated using the median-drug effect analysis using CalcuSyn software ([Bijnsdorp et al., 2011]). In order to evaluate combination indexes [CI] from different experiments, the CI values at Fraction Affected (FA) values >0.5 (preferably around 0.5, 0.75, and 0.9) were averaged for each specific experiment. The means of the separate experiments were subsequently averaged so that a mean ± Standard Error of the Mean (SEM) was calculated from three or more separate experiments. […] Drug combinations were designed based on the standard CalcuSyn approach in which a series of drug concentrations were combined in a fixed molar ratio, based on the IC50 of each drug. A variation of this approach was a sequential scheduling in which cells were exposed for 72 h to BLS, while in the combination PLX was added after 24 h and cells were exposed from 24 to 72 h. In the non-fixed ratio approach one drug was used at the IC25 (concentration that results in 25% growth inhibition) and the other drug was added in a concentration range.

FRβ = target: T1, FRβ (Homo sapiens, UniProt P14207); test: Intact cell binding assay, displacement of radio-active folic acid from CHO-FRβ cells; settings: folic acid set at 1
T1 construct: expressed in transfected cells; host or cells: CHO-FRβ cells
T1 sequence (P14207 17-255, species assumed): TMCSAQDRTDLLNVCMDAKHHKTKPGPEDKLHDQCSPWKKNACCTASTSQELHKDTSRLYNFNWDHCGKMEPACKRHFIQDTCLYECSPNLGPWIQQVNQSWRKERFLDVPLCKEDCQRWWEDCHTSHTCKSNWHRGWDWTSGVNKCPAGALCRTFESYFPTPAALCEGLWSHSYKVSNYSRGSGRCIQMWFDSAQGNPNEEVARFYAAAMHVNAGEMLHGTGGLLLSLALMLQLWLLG
Experimental: (§5) In order to determine to which extent PLX was a substrate for either the folate receptors, RFC or PCFT we used competition experiments in cell lines overexpressing either transporter ([Westerhof et al., 1995a], [b]; [Jansen et al., 1997]; [Ifergan et al., 2008]; [Lasry et al., 2008]; [van der Heijden et al., 2009]). For FRα and FRβ, we used an intact cell binding assay for competitive binding with KB cells and CHO-FRβ cells, respectively. […] For RFC we used a competition assay with 5 μM [^3H]-l-LV in CCRF-CEM/7A cells (RFC+++) for 2 min at 37°C. CEM-7A cells overexpress the RFC 30-fold over wild-type CCRF-CEM cells ([Jansen et al., 1990], [1997]).

FRα = target: T2, FRα (Homo sapiens, UniProt P15328); test: Intact cell binding assay, displacement of radio-active folic acid from KB cells; settings: inverse ratio of compound to displace 50% of radio-active folic acid, folic acid set at 1
T2 construct: endogenous in cells; host or cells: KB cells
T2 sequence (P15328 25-257): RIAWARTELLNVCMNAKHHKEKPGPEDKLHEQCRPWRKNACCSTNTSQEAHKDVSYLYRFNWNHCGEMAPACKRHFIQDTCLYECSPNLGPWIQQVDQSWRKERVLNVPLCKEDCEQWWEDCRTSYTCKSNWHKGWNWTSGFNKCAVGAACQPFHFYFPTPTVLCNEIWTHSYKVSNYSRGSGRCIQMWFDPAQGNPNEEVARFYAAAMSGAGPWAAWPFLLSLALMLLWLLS
Experimental: as §5

Structure (SMILES) | IC50 (Karpas-299) [nM] | IC50 (CCRF-CEM) [nM] | IC50 (lymphoma cell lines; 72 hr exposure, panel of cell lines, read-out: IC50, range over the cell lines) [nM] | effect of l-LV on sensitivity to BLS (lymphoma cell lines; data not shown) | accumulation of cells in the S-phase (HT cells [1]; 72 h exposure at IC50) | accumulation of cells in the sub-G1 phase (cell death) (HT cells [1]; drugs at their IC50, untreated 3.5%) [%] | IC50 (Hut-29) [nM] | accumulation of cells in the sub-G1 phase (cell death) (SUDHL-4 cells [2]) [%] | IC50 (SUDHL-4 cells [3]) [nM] | IC25 (concentration that results in 25% growth inhibition) (HT cells [4]; HT cells, 72 h) [nM] | IC50 (HT cells [4]; Homo sapiens, 72 h, read-out: IC50 (50% growth inhibition), HT, 72 h exposure) [nM] | IC50 (HT cells [4]; read-out: IC50 (50% growth inhibition), 72 h exposure) [nM] | IC50 (Jeko-1) [nM] | IC50 (SUDHL-5 cells) [nM] | FRβ relative affinity (FRβ) | FR-α relative affinity (FRα)
O=C(/C=C/c1cccc(S(=O)(=O)Nc2ccccc2)c1)NO [BLS, Belinostat] | 203 ± 21 | 95.8 ± 16.1 | 72 to 233 | did not affect sensitivity | more pronounced | 21 | 97 ± 12 | 15.5 | 72.3 ± 5 | ~100 | ~220 | 223 ± 23 | 103 ± 11 | 112 ± 15 |  | 
Nc1nc(=O)c2nc(CNc3ccc(C(=O)N[C@@H](CCC(=O)O)C(=O)O)cc3)cnc2[nH]1 [FA, Folic acid] |  |  |  |  |  |  |  |  |  |  |  |  |  |  | 1 | 1
